Reference: ChEMBL document CHEMBL1148862, “Evaluation of the anti-hepatitis C virus effect of novel potent, selective, and orally bioavailable JNK and VEGFR kinase inhibitors” (Bioorg Med Chem Lett, 2007)
The source made the active and inactive calls. The calls are words filed in the database; no cut-off is given here.

Legend:
[1] = Drug level in Swiss SPF (CD1) mouse liver at 20 mg/kg, po after 2 hrs; format: ADME, organism-based; set-up: dose 20 mg/kg, route oral; settings: read-out: Drug uptake
[2] = Half life in Swiss SPF (CD1) mouse heart at 20 mg/kg, po after 2 to 8 hrs; format: ADME, organism-based; set-up: dose 20 mg/kg, route oral
[3] = Cmax in Swiss SPF (CD1) mouse heart at 20 mg/kg, po; format: ADME, organism-based; set-up: dose 20 mg/kg, route oral
[4] = target: Mitogen-activated protein kinase 10 (Homo sapiens, UniProt P53779); assay: Inhibition of human JNK3
Chain of Mitogen-activated protein kinase 10 (P53779 whole entry): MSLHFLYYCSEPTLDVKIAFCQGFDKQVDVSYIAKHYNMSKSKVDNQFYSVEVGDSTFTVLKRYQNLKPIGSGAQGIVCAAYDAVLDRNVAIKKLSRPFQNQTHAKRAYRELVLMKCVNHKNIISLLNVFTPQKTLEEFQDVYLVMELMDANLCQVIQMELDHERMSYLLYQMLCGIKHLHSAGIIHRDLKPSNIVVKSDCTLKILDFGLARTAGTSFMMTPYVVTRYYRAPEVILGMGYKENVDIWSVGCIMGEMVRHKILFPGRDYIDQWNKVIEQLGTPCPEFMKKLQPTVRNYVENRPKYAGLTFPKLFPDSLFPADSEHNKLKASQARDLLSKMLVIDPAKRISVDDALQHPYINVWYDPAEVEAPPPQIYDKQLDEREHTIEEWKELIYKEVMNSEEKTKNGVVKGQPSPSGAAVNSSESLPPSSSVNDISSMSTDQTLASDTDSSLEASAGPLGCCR

[5] = Drug level in Swiss SPF (CD1) mouse heart at 20 mg/kg, po after 2 hrs; format: ADME, organism-based; set-up: dose 20 mg/kg, route oral; settings: read-out: Drug uptake
[6] = AUC (0 to infinity) in Swiss SPF (CD1) mouse heart at 20 mg/kg, po; format: ADME, organism-based; set-up: time infinity, dose 20 mg/kg, route oral
[7] = Drug level in Swiss SPF (CD1) mouse liver at 20 mg/kg, po after 0.5 hrs; format: ADME, organism-based; set-up: dose 20 mg/kg, route oral; settings: read-out: Drug uptake
[8] = Drug level in Swiss SPF (CD1) mouse plasma at 20 mg/kg, po after 8 hrs; format: ADME, organism-based; set-up: dose 20 mg/kg, route oral
[9] = Half life in Swiss SPF (CD1) mouse liver at 20 mg/kg, po after 2 to 8 hrs; format: ADME, organism-based; set-up: dose 20 mg/kg, route oral
Hepatitis C virus [10] = assay: Antiviral activity against HCV in Huh7-Rep cells by luciferase assay; format: functional, organism-based, Hepacivirus hominis
[11] = test system: Bovine viral diarrhea virus 1; assay: Antiviral activity against BVDV upto 100 uM; format: functional, organism-based
[12] = target: Vascular endothelial growth factor receptor 1 (Homo sapiens, UniProt P17948); assay: Inhibition of human VEGFR1
Chain of Vascular endothelial growth factor receptor 1 (P17948 whole entry): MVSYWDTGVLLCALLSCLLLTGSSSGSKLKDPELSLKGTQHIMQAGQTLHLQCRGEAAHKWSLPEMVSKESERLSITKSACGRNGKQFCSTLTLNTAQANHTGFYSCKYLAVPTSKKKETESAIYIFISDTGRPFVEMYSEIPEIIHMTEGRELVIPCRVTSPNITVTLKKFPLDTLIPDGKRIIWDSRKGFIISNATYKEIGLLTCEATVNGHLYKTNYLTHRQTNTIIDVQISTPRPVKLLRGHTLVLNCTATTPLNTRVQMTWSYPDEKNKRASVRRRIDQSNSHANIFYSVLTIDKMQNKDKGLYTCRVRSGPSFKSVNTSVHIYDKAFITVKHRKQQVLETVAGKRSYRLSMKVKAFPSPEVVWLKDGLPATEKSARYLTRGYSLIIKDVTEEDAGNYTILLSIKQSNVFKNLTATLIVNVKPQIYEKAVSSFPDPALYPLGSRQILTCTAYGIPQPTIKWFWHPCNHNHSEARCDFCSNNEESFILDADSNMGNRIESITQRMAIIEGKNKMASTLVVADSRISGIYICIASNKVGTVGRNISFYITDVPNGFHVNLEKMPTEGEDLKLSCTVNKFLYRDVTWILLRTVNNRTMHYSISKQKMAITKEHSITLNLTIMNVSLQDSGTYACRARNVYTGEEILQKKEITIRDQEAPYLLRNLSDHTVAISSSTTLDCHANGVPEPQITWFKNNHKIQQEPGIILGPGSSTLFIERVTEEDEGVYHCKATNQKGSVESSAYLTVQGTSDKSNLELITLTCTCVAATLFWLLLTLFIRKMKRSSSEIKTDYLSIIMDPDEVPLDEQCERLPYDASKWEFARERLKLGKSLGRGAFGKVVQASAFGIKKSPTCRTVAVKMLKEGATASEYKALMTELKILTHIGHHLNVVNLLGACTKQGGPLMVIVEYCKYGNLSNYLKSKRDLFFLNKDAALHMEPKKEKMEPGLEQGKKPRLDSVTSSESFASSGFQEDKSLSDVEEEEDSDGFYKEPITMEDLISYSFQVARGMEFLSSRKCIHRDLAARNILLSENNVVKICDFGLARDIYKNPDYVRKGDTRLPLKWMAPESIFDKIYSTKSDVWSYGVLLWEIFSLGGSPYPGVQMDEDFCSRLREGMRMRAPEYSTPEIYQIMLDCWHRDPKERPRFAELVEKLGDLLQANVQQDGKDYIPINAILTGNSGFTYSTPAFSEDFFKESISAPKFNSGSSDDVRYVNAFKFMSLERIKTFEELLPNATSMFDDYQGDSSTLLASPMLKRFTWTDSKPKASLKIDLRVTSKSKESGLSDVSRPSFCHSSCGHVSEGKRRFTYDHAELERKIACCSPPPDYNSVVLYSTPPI

[13] = Drug level in Swiss SPF (CD1) mouse liver at 20 mg/kg, po after 8 hrs; format: ADME, organism-based; set-up: dose 20 mg/kg, route oral; settings: read-out: Drug uptake
[14] = Drug level in Swiss SPF (CD1) mouse liver at 20 mg/kg, po after 1 hr; format: ADME, organism-based; set-up: dose 20 mg/kg, route oral; settings: read-out: Drug uptake
[15] = Half life in Swiss SPF (CD1) mouse plasma at 20 mg/kg, po after 2 to 8 hrs; format: ADME, organism-based; set-up: dose 20 mg/kg, route oral
[16] = Tmax in Swiss SPF (CD1) mouse heart at 20 mg/kg, po; format: ADME, organism-based; set-up: dose 20 mg/kg, route oral
[17] = Cytotoxicity against MT4 cells by luciferase assay; format: cell-based; settings: human
[18] = Drug level in Swiss SPF (CD1) mouse plasma at 20 mg/kg, po after 4 hrs; format: ADME, organism-based; set-up: dose 20 mg/kg, route oral
[19] = Cmax in Swiss SPF (CD1) mouse plasma at 20 mg/kg, po; format: ADME, organism-based; set-up: dose 20 mg/kg, route oral
[20] = Cmax in Swiss SPF (CD1) mouse liver at 20 mg/kg, po; format: ADME, organism-based; set-up: dose 20 mg/kg, route oral
[21] = Cytotoxicity against Huh7 cells by luciferase assay; format: cell-based, Huh-7; settings: human
Hepatitis C virus [22] = assay: Antiviral activity against HCV subgenomic 1a replicon upto 32 uM; format: functional, organism-based; settings: Hepacivirus hominis; subtype 1a
TGF-beta receptor type-1 = target: T1, TGF-beta receptor type-1 (Homo sapiens, UniProt P36897)
T1 sequence (P36897 whole entry): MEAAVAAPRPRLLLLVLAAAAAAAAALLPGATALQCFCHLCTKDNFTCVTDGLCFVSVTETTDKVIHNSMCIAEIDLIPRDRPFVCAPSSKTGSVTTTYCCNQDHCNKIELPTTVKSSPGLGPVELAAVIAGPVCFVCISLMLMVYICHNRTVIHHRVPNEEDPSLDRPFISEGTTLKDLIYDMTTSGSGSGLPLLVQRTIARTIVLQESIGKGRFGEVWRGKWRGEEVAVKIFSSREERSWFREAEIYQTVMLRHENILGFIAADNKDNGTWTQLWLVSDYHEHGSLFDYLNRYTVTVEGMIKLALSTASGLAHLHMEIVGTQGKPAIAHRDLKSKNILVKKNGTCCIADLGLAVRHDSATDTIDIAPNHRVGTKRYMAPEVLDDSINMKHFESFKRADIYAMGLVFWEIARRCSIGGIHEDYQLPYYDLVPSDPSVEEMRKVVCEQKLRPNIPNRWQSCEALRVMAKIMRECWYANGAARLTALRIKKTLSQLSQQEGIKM

Hepatitis C virus [23] = assay: Antiviral activity against HCV ET replicon with NS3 E1202G, T1280I mutation and NS4B K1846 mutation; format: functional, organism-based; settings: Hepacivirus hominis
[24] = Drug level in Swiss SPF (CD1) mouse heart at 20 mg/kg, po after 0.5 hrs; format: ADME, organism-based; set-up: dose 20 mg/kg, route oral; settings: read-out: Drug uptake
[25] = Drug level in Swiss SPF (CD1) mouse plasma at 20 mg/kg, po after 1 hr; format: ADME, organism-based; set-up: dose 20 mg/kg, route oral
[26] = Tmax in Swiss SPF (CD1) mouse plasma at 20 mg/kg, po; format: ADME, organism-based; set-up: dose 20 mg/kg, route oral
[27] = Drug level in Swiss SPF (CD1) mouse heart at 20 mg/kg, po after 24 hrs; format: ADME, organism-based; set-up: dose 20 mg/kg, route oral; settings: read-out: Drug uptake
[28] = Drug level in Swiss SPF (CD1) mouse plasma at 20 mg/kg, po after 2 hrs; format: ADME, organism-based; set-up: dose 20 mg/kg, route oral
[29] = target: Vascular endothelial growth factor receptor 3 (Homo sapiens, UniProt P35916); assay: Inhibition of human VEGFR3
Chain of Vascular endothelial growth factor receptor 3 (P35916 whole entry): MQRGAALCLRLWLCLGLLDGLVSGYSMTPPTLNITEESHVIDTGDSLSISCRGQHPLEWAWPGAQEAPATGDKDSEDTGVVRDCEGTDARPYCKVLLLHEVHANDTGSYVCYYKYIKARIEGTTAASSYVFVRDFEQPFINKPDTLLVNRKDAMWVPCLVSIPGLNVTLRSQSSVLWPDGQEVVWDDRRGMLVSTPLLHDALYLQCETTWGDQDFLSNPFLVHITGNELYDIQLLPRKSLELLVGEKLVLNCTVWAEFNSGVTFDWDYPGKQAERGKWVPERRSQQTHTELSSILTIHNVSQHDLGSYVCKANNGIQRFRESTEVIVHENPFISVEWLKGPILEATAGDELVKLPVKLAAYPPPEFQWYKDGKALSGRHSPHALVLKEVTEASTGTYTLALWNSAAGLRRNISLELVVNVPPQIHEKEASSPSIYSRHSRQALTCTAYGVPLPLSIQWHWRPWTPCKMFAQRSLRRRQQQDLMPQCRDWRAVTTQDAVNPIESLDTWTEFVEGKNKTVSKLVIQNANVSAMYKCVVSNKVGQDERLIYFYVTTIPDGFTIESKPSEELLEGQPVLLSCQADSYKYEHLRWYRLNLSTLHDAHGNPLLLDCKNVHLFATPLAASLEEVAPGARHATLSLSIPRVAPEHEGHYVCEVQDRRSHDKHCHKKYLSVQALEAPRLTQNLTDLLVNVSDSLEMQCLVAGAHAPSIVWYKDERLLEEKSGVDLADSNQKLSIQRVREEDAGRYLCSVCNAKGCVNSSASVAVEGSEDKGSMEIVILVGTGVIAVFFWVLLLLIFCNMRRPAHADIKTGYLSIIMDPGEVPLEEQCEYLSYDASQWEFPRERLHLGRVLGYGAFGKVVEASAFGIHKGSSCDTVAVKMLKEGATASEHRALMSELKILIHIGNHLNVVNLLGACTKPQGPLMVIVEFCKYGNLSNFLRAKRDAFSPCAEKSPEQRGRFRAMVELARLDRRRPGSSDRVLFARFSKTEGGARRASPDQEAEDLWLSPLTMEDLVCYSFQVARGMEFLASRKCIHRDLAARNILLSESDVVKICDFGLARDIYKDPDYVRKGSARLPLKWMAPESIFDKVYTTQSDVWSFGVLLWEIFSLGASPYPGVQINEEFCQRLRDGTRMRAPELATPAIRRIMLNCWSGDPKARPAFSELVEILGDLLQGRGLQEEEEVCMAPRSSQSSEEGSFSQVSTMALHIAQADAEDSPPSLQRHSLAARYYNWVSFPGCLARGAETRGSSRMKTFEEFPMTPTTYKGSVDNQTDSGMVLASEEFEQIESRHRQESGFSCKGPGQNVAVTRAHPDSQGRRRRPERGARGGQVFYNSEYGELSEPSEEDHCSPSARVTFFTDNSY

[30] = Drug level in Swiss SPF (CD1) mouse heart at 20 mg/kg, po after 1 hr; format: ADME, organism-based; set-up: dose 20 mg/kg, route oral; settings: read-out: Drug uptake
[31] = target: Vascular endothelial growth factor receptor 2 (Homo sapiens, UniProt P35968); assay: Inhibition of human VEGFR2
[32] = Drug level in Swiss SPF (CD1) mouse plasma at 20 mg/kg, po after 24 hrs; format: ADME, organism-based; set-up: dose 20 mg/kg, route oral
[33] = AUC (0 to infinity) in Swiss SPF (CD1) mouse plasma at 20 mg/kg, po; format: ADME, organism-based; set-up: time infinity, dose 20 mg/kg, route oral
Hepatitis C virus [34] = assay: Antiviral activity against HCV subgenomic 1b replicon upto 32 uM; format: functional, organism-based; settings: Hepacivirus hominis; genotype 1b
[35] = AUC (0 to 8 hrs) in Swiss SPF (CD1) mouse plasma at 20 mg/kg, po; format: ADME, organism-based; set-up: time < 8 hr, dose 20 mg/kg, route oral
[36] = Drug level in Swiss SPF (CD1) mouse liver at 20 mg/kg, po after 4 hrs; format: ADME, organism-based; set-up: dose 20 mg/kg, route oral; settings: read-out: Drug uptake
[37] = AUC (0 to infinity) in Swiss SPF (CD1) mouse liver at 20 mg/kg, po; format: ADME, organism-based; set-up: time infinity, dose 20 mg/kg, route oral
[38] = Inhibition of HCV NS5B polymerase; set-up: species or system Hepacivirus hominis
[39] = Tmax in Swiss SPF (CD1) mouse liver at 20 mg/kg, po; format: ADME, organism-based; set-up: dose 20 mg/kg, route oral
[40] = Drug level in Swiss SPF (CD1) mouse plasma at 20 mg/kg, po after 0.5 hrs; format: ADME, organism-based; set-up: dose 20 mg/kg, route oral
[41] = target: Mitogen-activated protein kinase 9 (Homo sapiens, UniProt P45984); assay: Inhibition of human JNK2
Chain of Mitogen-activated protein kinase 9 (P45984 whole entry): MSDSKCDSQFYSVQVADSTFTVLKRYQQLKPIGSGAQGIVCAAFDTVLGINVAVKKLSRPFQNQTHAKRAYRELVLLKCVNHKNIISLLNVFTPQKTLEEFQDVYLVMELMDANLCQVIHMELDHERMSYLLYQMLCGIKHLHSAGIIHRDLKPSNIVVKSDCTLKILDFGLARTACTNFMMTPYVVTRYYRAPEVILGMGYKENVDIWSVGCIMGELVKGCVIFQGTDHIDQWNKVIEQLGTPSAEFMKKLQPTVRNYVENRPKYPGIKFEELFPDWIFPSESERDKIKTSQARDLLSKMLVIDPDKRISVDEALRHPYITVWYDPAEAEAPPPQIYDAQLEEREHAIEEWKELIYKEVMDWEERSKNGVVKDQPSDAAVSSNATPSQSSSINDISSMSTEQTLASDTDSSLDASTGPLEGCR

[42] = target: Mitogen-activated protein kinase 8 (Homo sapiens, UniProt P45983); assay: Inhibition of JNK1
Chain of Mitogen-activated protein kinase 8 (P45983 whole entry): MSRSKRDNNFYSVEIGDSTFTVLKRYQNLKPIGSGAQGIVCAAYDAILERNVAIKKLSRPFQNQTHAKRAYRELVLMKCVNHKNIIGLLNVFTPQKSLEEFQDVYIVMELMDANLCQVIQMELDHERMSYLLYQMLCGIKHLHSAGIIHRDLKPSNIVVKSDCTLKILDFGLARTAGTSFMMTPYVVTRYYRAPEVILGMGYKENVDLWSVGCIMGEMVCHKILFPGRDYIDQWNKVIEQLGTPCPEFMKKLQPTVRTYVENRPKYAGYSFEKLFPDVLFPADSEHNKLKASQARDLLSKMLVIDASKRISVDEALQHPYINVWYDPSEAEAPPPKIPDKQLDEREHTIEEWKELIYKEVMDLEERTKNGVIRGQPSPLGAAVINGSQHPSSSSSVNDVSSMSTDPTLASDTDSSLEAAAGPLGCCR

[43] = AUC (0 to 8 hrs) in Swiss SPF (CD1) mouse liver at 20 mg/kg, po; format: ADME, organism-based; set-up: time < 8 hr, dose 20 mg/kg, route oral
[44] = Drug level in Swiss SPF (CD1) mouse heart at 20 mg/kg, po after 8 hrs; format: ADME, organism-based; set-up: dose 20 mg/kg, route oral; settings: read-out: Drug uptake
[45] = AUC (0 to 8 hrs) in Swiss SPF (CD1) mouse heart at 20 mg/kg, po; format: ADME, organism-based; set-up: time < 8 hr, dose 20 mg/kg, route oral
[46] = Drug level in Swiss SPF (CD1) mouse heart at 20 mg/kg, po after 4 hrs; format: ADME, organism-based; set-up: dose 20 mg/kg, route oral; settings: read-out: Drug uptake
[47] = Inhibition of HCV NS3/4A protease; set-up: species or system Hepacivirus hominis

`O=C(NCCCN1CCCC1=O)c1cnccc1Nc1nc(-c2cc(Br)ccc2F)nc2nccnc12` gave a concentration at 2 h [1] of 611 ng/mL, a half-life [2] of 3.4 h and a Cmax [3] of 678 ng/mL. It also gave an IC50 [4] of 59 nM, a concentration at 2 h [5] of 92.9 ng/mL and an AUC(0-inf) [6] of 1260 ng·h/mL. For the same compound, the concentration at 0.5 h [7] was 4060 ng/mL, the concentration at 8 h [8] was 5.52 ng/mL and the half-life [9] was 3.5 h. For the same compound, the EC50 (Hepatitis C virus [10]) was 64 nM, the Activity [11] was “inactive” and the IC50 [12] was 47 nM. It also gave a concentration at 8 h [13] of 201 ng/mL, a concentration at 1 h [14] of 2940 ng/mL and a half-life [15] of 2.9 h. For the same compound, the Tmax [16] was 0.5 h, the CC50 [17] was > 32000 nM and the concentration at 4 h [18] was 20.3 ng/mL. For the same compound, the Cmax [19] was 220 ng/mL, the Cmax [20] was 4060 ng/mL and the CC50 [21] was > 32000 nM. The Activity (Hepatitis C virus [22]) was “inactive”, the IC50 (TGF-beta receptor type-1) was 3.2 nM and the Activity (Hepatitis C virus [23]) was “Active”. It also gave a concentration at 0.5 h [24] of 678 ng/mL, a concentration at 1 h [25] of 166 ng/mL and a Tmax [26] of 0.5 h. For the same compound, the concentration at 24 h [27] was 5 ng/mL, the concentration at 2 h [28] was 21.7 ng/mL and the IC50 [29] was 123 nM. For the same compound, the concentration at 1 h [30] was 557 ng/mL, the IC50 [31] was 140 nM and the concentration at 24 h [32] was < 0.5 ng/mL. For the same compound, the AUC(0-inf) [33] was 332 ng·h/mL, the Activity (Hepatitis C virus [34]) was “inactive” and the AUC(0-t) at 8 h [35] was 309 ng·h/mL. For the same compound, the concentration at 4 h [36] was 627 ng/mL, the AUC(0-inf) [37] was 7970 ng·h/mL and the IC50 [38] was > 30000 nM. It also gave a Tmax [39] of 0.5 h, a concentration at 0.5 h [40] of 220 ng/mL and an IC50 [41] of 37 nM. It also gave an IC50 [42] of 10500 nM, an AUC(0-t) at 8 h [43] of 6960 ng·h/mL and a concentration at 8 h [44] of 29.1 ng/mL. For the same compound, the AUC(0-t) at 8 h [45] was 1120 ng·h/mL, the concentration at 4 h [46] was 83.6 ng/mL and the IC50 [47] was > 30000 nM.
